Publication PMC3578427 (Journal of medicinal chemistry, 2011)
Counter-ions that a name gives are not always drawn.

Assays:
[1] = biological target: T1, hA3 AR (Homo sapiens, UniProt P0DMS8)
T1 sequence (P0DMS8 1-318): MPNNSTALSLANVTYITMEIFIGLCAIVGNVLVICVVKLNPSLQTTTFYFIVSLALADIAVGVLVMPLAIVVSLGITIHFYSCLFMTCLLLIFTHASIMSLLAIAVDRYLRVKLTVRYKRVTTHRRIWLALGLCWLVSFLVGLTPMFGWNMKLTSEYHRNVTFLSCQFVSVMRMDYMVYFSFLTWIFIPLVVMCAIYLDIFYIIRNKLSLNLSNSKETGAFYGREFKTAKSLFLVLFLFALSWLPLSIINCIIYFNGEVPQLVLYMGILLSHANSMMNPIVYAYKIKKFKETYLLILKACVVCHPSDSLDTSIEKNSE

[2] = biological target: T2, hA2B AR (Homo sapiens, UniProt P29275)
T2 sequence (P29275 1-332): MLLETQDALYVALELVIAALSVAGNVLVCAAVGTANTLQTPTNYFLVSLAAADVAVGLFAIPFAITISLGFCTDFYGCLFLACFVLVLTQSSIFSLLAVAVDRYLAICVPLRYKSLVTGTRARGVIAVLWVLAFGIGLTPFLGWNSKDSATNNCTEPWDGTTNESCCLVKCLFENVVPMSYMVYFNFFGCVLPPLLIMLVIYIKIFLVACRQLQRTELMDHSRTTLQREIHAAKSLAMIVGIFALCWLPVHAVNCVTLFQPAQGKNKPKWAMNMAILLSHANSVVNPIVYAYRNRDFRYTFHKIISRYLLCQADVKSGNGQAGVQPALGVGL

[3] = Water solubility; type: physicochemical
[4] = test system: human (h) A2B AR; settings: cited from earlier work

Compound | activity at hA2B AR in the functional assay [2] | further results
CC(C)(C)OC(=O)NCCNc1nc(N)n2nc(-c3ccco3)nc2n1 [Compound 10, 7-Amino-5-[(2-tert-butyloxycarbonylamino)ethyl]-amino-2(2-furyl) 1,2,4-triazolo [1,5-a] 1,3,5-triazine] |  | Ki [1]: ~1000 nM
CC(C)(C)OC(=O)NCC1CCC(CNc2nc(N)n3nc(-c4ccco4)nc3n2)CC1 (stereo not drawn) [Compound 11, 7-Amino-5-[(4-tert-butyloxycarbonylaminomethyl)cyclohexylmethyl]-amino-2(2-furyl) 1,2,4-triazolo [1,5-a] 1,3,5-triazine] | poorly active | 
NCCOCCOCCNc1nc(N)n2nc(-c3ccco3)nc2n1.O=C(O)C(F)(F)F [Compound 20, 7-Amino-5-[(8-amino)triethylenoxy]-amino-2(2-furyl) 1,2,4-triazolo [1,5-a] 1,3,5-triazine trifluoroacetate] |  | solubility [3]: ≥ 10 mM
Nc1nc(N)n2nc(-c3ccco3)nc2n1 [Compound 41, 5,7-diamino-2(2-furyl) 1,2,4-triazolo [1,5-a] 1,3,5-triazine] | poorly active | 
Nc1nc(NC(=O)c2ccccc2)n2nc(-c3ccco3)nc2n1 [Compound 43, 5-amino-7-phenylcarbonylamino-2(2-furyl) 1,2,4-triazolo [1,5-a] 1,3,5-triazine trifluoroacetate] | poorly active | 
Nc1nc(NCCc2ccc(O)cc2)nc2nc(-c3ccco3)nn12 [ZM241385] |  | affinity at hA2B AR [4]: 28 nM
